Assay results reported in patent US11771738B2 (Zoetis Services LLC, priority 2018, dated 2023).
Where two headings read alike, the source gives them in different places.

What was measured:
Type in all cases: cell-based
[1] = tested on: D. immitis L4 larvae; test: Dirofilaria immitis, L4 Stage (DiL4) In Vitro Assay; conditions: for minimal effective concentration: Dirofilaria immitis, 72 h, read-out: DiL4 MED, Minimum Effective Dose, D. immitis L4 larvae motility, in vitro; for DiMf/DiL4: larval stage selectivity, ratio of DiMf MED to DiL4 MED
[2] = tested on: third stage larvae of Haemonchus contortus; test: Haemonchus contortus, Larvae Stage 3 (HcL3) In Vitro Assay; conditions: Haemonchus contortus, 96 h
[3] = tested on: microfilariae of Dirofilaria immitis; test: Dirofilaria immitis, Microfilaria (DiMf) In Vitro Assay; conditions: Dirofilaria immitis, 72 h, read-out: DiMf MED, Minimum Effective Dose, D. immitis microfilariae motility, in vitro
[4] = read-out: HcL3 MED, Haemonchus contortus third stage larvae in vitro, class mark appended to the Ex # in Table 3
[5] = read-out: HcL3 MED, Minimum Effective Dose, H. contortus third stage larvae, approximately 96 hours
[6] = read-out: HcL3 MED, approximately 96 hours incubation, multiple-resistant field isolate

Compound | minimal effective concentration [1] [µM] | DiMf/DiL4 [1] | minimal effective concentration [2, 4] [µM] | minimal effective concentration [2, 5] [µM] | minimal effective concentration [2, 6] [µM] | minimal effective concentration [3] [µM]
CC(C)C[C@H]1C(=O)O[C@H](Cc2ccc([C@@H](C)c3nccs3)cc2)C(=O)N(C)[C@@H](CC(C)C)C(=O)O[C@H](C)C(=O)N(C)[C@@H](CC(C)C)C(=O)O[C@H](Cc2ccc([C@@H](C)c3nccs3)cc2)C(=O)N(C)[C@@H](CC(C)C)C(=O)O[C@H](C)C(=O)N1C [Example 3-291, (3S,6R,9S,12R,15S,18R,21S,24R)-3,9,15,21-tetraisobutyl-4,6,10,16,18,22-hexamethyl-12,24-bis(4-((R)-1-(thiazol-2-yl)ethyl)benzyl)-1,7,13,19-tetraoxa-4,10,16,22-tetraazacyclotetracosan-2,5,8,11,14,17,20,23-octaone] | 0.0001 | 3 | < 1 | 0.3 | ≤ 1 | 0.0003
CC(C)C[C@H]1C(=O)O[C@H](Cc2ccc(Cc3ccnc(N4CCOCC4)c3)cc2)C(=O)N(C)[C@@H](CC(C)C)C(=O)O[C@H](C)C(=O)N(C)[C@@H](CC(C)C)C(=O)O[C@H](Cc2ccc(Cc3ccnc(N4CCOCC4)c3)cc2)C(=O)N(C)[C@@H](CC(C)C)C(=O)O[C@H](C)C(=O)N1C [Example 3-292, (3S,6R,9S,12R,15S,18R,21S,24R)-3,9,15,21-tetraisobutyl-4,6,10,16,18,22-hexamethyl-12,24-bis(4-((2-morpholinopyridin-4-yl)methyl)benzyl)-1,7,13,19-tetraoxa-4,10,16,22-tetraazacyclotetracosan-2,5,8,11,14,17,20,23-octaone] | 0.0003 | 3.3 | 1 to 3.3 | 1.8 |  | 0.001
COc1ncc(F)cc1Cc1ccc(C[C@H]2OC(=O)[C@H](CC(C)C)N(C)C(=O)[C@@H](C)OC(=O)[C@H](CC(C)C)N(C)C(=O)[C@@H](Cc3ccc(Cc4cc(F)cnc4OC)cc3)OC(=O)[C@H](CC(C)C)N(C)C(=O)[C@@H](C)OC(=O)[C@H](CC(C)C)N(C)C2=O)cc1 [Example 3-293, (3S,6R,9S,12R,15S,18R,21S,24R)-6,18-bis(4-((5-fluoro-2-methoxypyridin-3-yl)methyl)benzyl)-3,9,15,21-tetraisobutyl-4,10,12,16,22,24-hexamethyl-1,7,13,19-tetraoxa-4,10,16,22-tetraazacyclotetracosan-2,5,8,11,14,17,20,23-octaone] | 0.0003 | 167 |  | 5.7 |  | 0.05
Cc1ncncc1Cc1ccc(C[C@H]2OC(=O)[C@H](CC(C)C)N(C)C(=O)[C@@H](C)OC(=O)[C@H](CC(C)C)N(C)C(=O)[C@@H](Cc3ccc(Cc4cncnc4C)cc3)OC(=O)[C@H](CC(C)C)N(C)C(=O)[C@@H](C)OC(=O)[C@H](CC(C)C)N(C)C2=O)cc1 [Example 3-294, (3S,6R,9S,12R,15S,18R,21S,24R)-3,9,15,21-tetraisobutyl-4,6,10,16,18,22-hexamethyl-12,24-bis(4-((4-methylpyrimidin-5-yl)methyl)benzyl)-1,7,13,19-tetraoxa-4,10,16,22-tetraazacyclotetracosan-2,5,8,11,14,17,20,23-octaone] | 0.0001 | 1 | < 1 | 1 | ≤ 1 | 0.0001
CC(C)C[C@H]1C(=O)O[C@H](Cc2ccc(Cc3cnccc3C(F)F)cc2)C(=O)N(C)[C@@H](CC(C)C)C(=O)O[C@H](C)C(=O)N(C)[C@@H](CC(C)C)C(=O)O[C@H](Cc2ccc(Cc3cnccc3C(F)F)cc2)C(=O)N(C)[C@@H](CC(C)C)C(=O)O[C@H](C)C(=O)N1C [Example 3-295, (3S,6R,9S,12R,15S,18R,21S,24R)-6,18-bis(4-((4-(difluoromethyl)pyridin-3-yl)methyl)benzyl)-3,9,15,21-tetraisobutyl-4,10,12,16,22,24-hexamethyl-1,7,13,19-tetraoxa-4,10,16,22-tetraazacyclotetracosan-2,5,8,11,14,17,20,23-octaone] | 0.0003 | 16.7 | 1 to 3.3 | 1.8 |  | 0.005
CC(C)C[C@H]1C(=O)O[C@H](Cc2ccc(Cc3cccnc3C3CC3)cc2)C(=O)N(C)[C@@H](CC(C)C)C(=O)O[C@H](C)C(=O)N(C)[C@@H](CC(C)C)C(=O)O[C@H](Cc2ccc(Cc3cccnc3C3CC3)cc2)C(=O)N(C)[C@@H](CC(C)C)C(=O)O[C@H](C)C(=O)N1C [Example 3-296, (3S,6R,9S,12R,15S,18R,21S,24R)-6,18-bis(4-((2-cyclopropylpyridin-3-yl)methyl)benzyl)-3,9,15,21-tetraisobutyl-4,10,12,16,22,24-hexamethyl-1,7,13,19-tetraoxa-4,10,16,22-tetraazacyclotetracosan-2,5,8,11,14,17,20,23-octaone] | 0.0005 | 60 | 1 to 3.3 | 1.8 |  | 0.03
CC(C)C[C@H]1C(=O)O[C@H](Cc2ccc(Cc3cccnc3OC(F)F)cc2)C(=O)N(C)[C@@H](CC(C)C)C(=O)O[C@H](C)C(=O)N(C)[C@@H](CC(C)C)C(=O)O[C@H](Cc2ccc(Cc3cccnc3OC(F)F)cc2)C(=O)N(C)[C@@H](CC(C)C)C(=O)O[C@H](C)C(=O)N1C [Example 3-297, (3S,6R,9S,12R,15S,18R,21S,24R)-6,18-bis(4-((2-(difluoromethoxy)pyridin-3-yl)methyl)benzyl)-3,9,15,21-tetraisobutyl-4,10,12,16,22,24-hexamethyl-1,7,13,19-tetraoxa-4,10,16,22-tetraazacyclotetracosan-2,5,8,11,14,17,20,23-octaone] | 0.001 | 30 |  | > 10 |  | 0.03
CC(C)C[C@H]1C(=O)O[C@H](Cc2ccc(Cc3cnccc3C#N)cc2)C(=O)N(C)[C@@H](CC(C)C)C(=O)O[C@H](C)C(=O)N(C)[C@@H](CC(C)C)C(=O)O[C@H](Cc2ccc(Cc3cnccc3C#N)cc2)C(=O)N(C)[C@@H](CC(C)C)C(=O)O[C@H](C)C(=O)N1C [Example 3-307, 3,3′-(((((2R,5S,8R,11S,14R,17S,20R,23S)-5,11,17,23-tetraisobutyl-4,8,10,16,20,22-hexamethyl-3,6,9,12,15,18,21,24-octaoxo-1,7,13,19-tetraoxa-4,10,16,22-tetraazacyclotetracosane-2,14-diyl)bis(methylene))bis(4,1-phenylene))bis(methylene))diisonicotinonitrile] | 0.0001 | 3 | < 1 | 1 | ≤ 1 | 0.0003
CSc1ncccc1Cc1ccc(C[C@H]2OC(=O)[C@H](CC(C)C)N(C)C(=O)[C@@H](C)OC(=O)[C@H](CC(C)C)N(C)C(=O)[C@@H](Cc3ccc(Cc4cccnc4SC)cc3)OC(=O)[C@H](CC(C)C)N(C)C(=O)[C@@H](C)OC(=O)[C@H](CC(C)C)N(C)C2=O)cc1 [Example 3-308, (3S,6R,9S,12R,15S,18R,21S,24R)-3,9,15,21-tetraisobutyl-4,6,10,16,18,22-hexamethyl-12,24-bis(4-((2-(methylthio)pyridin-3-yl)methyl)benzyl)-1,7,13,19-tetraoxa-4,10,16,22-tetraazacyclotetracosan-2,5,8,11,14,17,20,23-octaone] | 0.001 | 10 | 1 to 3.3 | 3.3 |  | 0.01
Cc1cnccc1Cc1ccc(C[C@H]2OC(=O)[C@H](CC(C)C)N(C)C(=O)[C@@H](C)OC(=O)[C@H](CC(C)C)N(C)C(=O)[C@@H](Cc3ccc(Cc4ccncc4F)cc3)OC(=O)[C@H](CC(C)C)N(C)C(=O)[C@@H](C)OC(=O)[C@H](CC(C)C)N(C)C2=O)cc1 [Example 3-309, (3S,6R,9S,12R,15S,18R,21S,24R)-6-(4-((3-fluoropyridin-4-yl)methyl)benzyl)-3,9,15,21-tetraisobutyl-4,10,12,16,22,24-hexamethyl-18-(4-((3-methylpyridin-4-yl)methyl)benzyl)-1,7,13,19-tetraoxa-4,10,16,22-tetraazacyclotetracosan-2,5,8,11,14,17,20,23-octaone] | 0.00055 | 5.5 | 1 to 3.3 | 3.3 |  | 0.003
CCc1ncncc1Cc1ccc(C[C@H]2OC(=O)[C@H](CC(C)C)N(C)C(=O)[C@@H](C)OC(=O)[C@H](CC(C)C)N(C)C(=O)[C@@H](Cc3ccc(Cc4cncnc4CC)cc3)OC(=O)[C@H](CC(C)C)N(C)C(=O)[C@@H](C)OC(=O)[C@H](CC(C)C)N(C)C2=O)cc1 [Example 3-310, (3S,6R,9S,12R,15S,18R,21S,24R)-6,18-bis(4-((4-ethylpyrimidin-5-yl)methyl)benzyl)-3,9,15,21-tetraisobutyl-4,10,12,16,22,24-hexamethyl-1,7,13,19-tetraoxa-4,10,16,22-tetraazacyclotetracosan-2,5,8,11,14,17,20,23-octaone] | 0.001 | 0.3 | < 1 | 1 | ≤ 1 | 0.0003
